Results from patent US20240082250A1, “NEDDYLATION INHIBITION FOR USE IN THE TREATMENT OF HUMAN IMMUNODEFICIENCY VIRUS (HIV) INFECTION” (priority 2022, published 2024).

Experiments:
[1] = test system: Cullin 2 (CUL2) neddylation; experiment: Immunoblot for Cullin 2 (CUL2) neddylation in ACH2 cells; format: cell-based; set-up: dose or concentration left out as unconfirmed; conditions: MLN, with and without TNFa reactivation
[2] = test system: HIV; experiment: Infectivity of HIV reactivated from ACH2 cells, TZM-bl reporter cell luciferase assay; format: cell-based; conditions: ACH2 cells treated with MLN 100 nM or 200 nM before and during LRA (TNFa, PMAi, JQ1), vs DMSO, p24-normalized
Procedure: (§1) (B) MLN treatment of ACH2 cells before and during TNFa provirus reactivation increases the amount of A3G incorporated into virions, a strong candidate mechanism for decreased infectivity shown in (A). Virions from ACH2 cell supernatant were pelleted over a 20% sucrose cushion. […] A3G signal (black bars) and p24 signal (grey bars) from n=3 experiments are quantified on the right (Panel 2 in B).
Virus infectivity was determined by infecting TZM-bl reporter cell line with p24-equivalent amounts of culture supernatant fluid (e.g., normalized to the same p24 amount, as a surrogate for inoculating the same number of virions) from cells pretreated with MLN or DMSO control and reactivated by the 3 LRAs). Supernatant infectivity was measured via luciferase activity in the form of […] (RFU) where higher RFU signifies greater infectivity. Average RFU values were normalized to the control condition (LRA alone without MLN treatment) such that maximum infectivity seen in that control condition is set to 100%.

[3] = test system: A3G incorporated into virions; experiment: Immunoblot of A3G in virions pelleted from ACH2 supernatant; format: cell-based, HIV; conditions: ACH2 cells; MLN before and during TNFa reactivation; immunoblot of viral pellets, n=3
Source text: as §1
Virions from ACH2 cell supernatant were pelleted over a 20% sucrose cushion. […] A3G signal (black bars) and p24 signal (grey bars) from n=3 experiments are quantified on the right (Panel 2) in FIG. 3B.

[4] = test system: A3G; experiment: A3G LMM/HMM distribution, sucrose density gradient and immunoblot, H9 cells; format: cell-based; conditions: 200 nM MLN for 4 or 6 days
Procedure: (§2) A3G low molecular mass forms (LMM) (fractions 1-5) and HMM complexes (fractions 7-12) are visualized by immunoblotting of fractions collected after density gradient centrifugation of a 5-40% sucrose gradient. […] (B) CD4+CD45RO+ memory T cells were isolated from healthy donors; cells were then stimulated with CD3/28 Abs (*) and cultured for 4 days with DMSO, 100 nM, or 200 nM MLN before density gradient centrifugation and immunoblotting of gradient fractions.

[5] = test system: A3G; experiment: A3G LMM/HMM distribution, sucrose density gradient and immunoblot, CD4+CD45RO+ memory T cells; format: cell-based; conditions: CD4+CD45RO+ memory T cells from healthy donors, CD3/28 stimulated; 4 days, 100 nM or 200 nM MLN vs DMSO
Procedure: as §2

[6] = test system: HIV capsid antigen (p24); experiment: Extracellular p24 ELISA of ACH2 culture supernatant after provirus reactivation; format: cell-based; conditions: ACH2 cells; MLN before and during LRAs (TNFa 10 ng/mL, PMA/i, JQ1), n=3 each
Procedure: (§3) MLN decreases reactivation of latent provirus, as shown in VIF+, replication-competent provirus, from the latently infected ACH2 T cell line based on HIV capsid p24 amounts in cell culture supernatant fluid and intracellularly after 3 different LRAs: tumor necrosis factor alpha (TNFa) at 10 ng/mL; PMA/ionomycin (PMAi) at 405 pM phorbol 12-myristate 13-acetate (PMA) and 6.7 nM ionomycin (eBiosciences™ stimulation cocktail); and JQ1 at 100 nM (FIGS. 5 and 6). […] MLN reduces intracellular p24 production from ACH2 1 cells treated with TNFa, PMAi, and JQ1, compared to DMSO control (FIG. 6A). […] HIV promoter-driven RNA is also shown to be decreased by MLN before/during TNFa or PMAi (FIG. 7). […] ACH2 cells were pretreated for 6 hours with DMSO, or MLN at […], and then reactivated with 10 ng/mL TNFa or PMA/ionomycin.

[7] = test system: HIV capsid antigen (p24); experiment: Immunoblot of p24 in reactivated virions pelleted from ACH2 supernatant; format: cell-based; conditions: LRA-exposed ACH2 cells; MLN vs control
Procedure: as §3

[8] = test system: HIV capsid antigen (p24); experiment: Immunoblot of p24 in reactivated virions pelleted from J-Lat 6.3 supernatant; format: cell-based; conditions: LRA-exposed J-Lat 6.3 cells; MLN vs control
[9] = test system: intracellular p24; experiment: Intracellular p24 production in ACH2 cells exposed to LRAs; format: cell-based, HIV; conditions: ACH2 cells treated with TNFa (n=4), PMA/i (n=4), JQ1 (n=3); vs DMSO control
Source text: (§4) (B) MLN reduces intracellular p24 production from J-Lat 6.3 cells exposed to TNFa, as well as from ACH2 cells exposed to TNFa. […] (C) Six hour treatment of J-Lat cells (both J-Lat 6.3 and J-Lat 11.1) with MLN before and during LRA exposure reduces HIV promoter-driven GFP expression after exposure to TNFa, PMAi and JQ1.
as §3

[10] = test system: intracellular p24; experiment: Intracellular p24 production in J-Lat 6.3 cells exposed to TNFa; format: cell-based, HIV
Source text: as §4

[11] = test system: HIV promoter-driven GFP expression; experiment: HIV promoter-driven GFP expression in J-Lat 6.3 cells; format: cell-based; conditions: six hour MLN treatment before and during LRA exposure (TNFa, PMAi, JQ1)
Source text: as §4, §3

[12] = test system: HIV promoter-driven GFP expression; experiment: HIV promoter-driven GFP expression in J-Lat 11.1 cells; format: cell-based; conditions: six hour MLN treatment before and during LRA exposure (TNFa, PMAi, JQ1)
Source text: as §4, §3

[13] = test system: HIV gag RNA; experiment: HIV gag RNA RT-qPCR in ACH2 cells; format: cell-based; conditions: MLN at before and during TNFa 10 ng/mL or PMA/ionomycin, 48 hours after reactivation, vs DMSO
Procedure: Gag RNA is reduced in ACH2 cells as measured by RT-qPCR 48 hours after reactivation. ACH2 cells were treated with either DMSO or MLN (at […]) before and during exposure to either 10 ng/mL TNFa (plot on left) or 405 pM PMA and 6.7 nM ionomycin (eBiosciences stimulation cocktail) (plot on right); 4 separate ACH2 cell cultures were used for each plot's experiment.
as §3

[14] = test system: ACH2 cells; experiment: Annexin V / SYTOX Green apoptosis flow cytometry in ACH2 cells; format: cell-based; conditions: 200 nM MLN 6 hours before and during 10 ng/mL TNFa, 16 hours post-TNFa
Procedure: (§5) ACH2 cells were pretreated for 6 hours with 200 nM MLN prior to provirus reactivation with 10 ng/mL TNFa. 16 hours post-TNFa addition cells were collected; apoptosis was measured via flow cytometry by staining for Annexin V and SYTOX Green DNA intercalant. […] Data was collected 24 hours after TNFa addition. (C) CD4+ T cells from 3 healthy donors were activated for 48 hrs with anti-CD3/CD28 antibodies. Cells were then treated with 200 nM of MLN and apoptosis was measured after 6, 16, and 24 hrs of drug treatment using flow cytometry. * p<0.05 *** p=0.0002 (D) Expression of RNA encoding cell cycling and apoptotic targets assessed before in ACH2 cells was determined in primary CD4 T cells via RT-qPCR. Gene expression was normalized to 18S control ** p=0.0033 **** p<0.0001 A&B) n=3 donors.
(§6) ACH2 cells were treated with 200 nM MLN for 6 hours before and then during reactivation with 10 ng/mL TNFa. 16 hours post-TNFa addition, cells were collected and percentage of apoptotic cells increased with MLN treatment upon reactivation (FIG. 8A).

[15] = test system: NOXA, PUMA, p21, p53 RNA; experiment: RT-qPCR for apoptotic targets and cell cycle indicators in ACH2 cells; format: cell-based; conditions: 200 nM MLN before and during 10 ng/mL TNFa, 24 hours after TNFa
Procedure: as §5, §6

[16] = test system: primary CD4+ T cells; experiment: Apoptosis flow cytometry in anti-CD3/CD28-activated uninfected primary CD4+ T cells; format: cell-based; conditions: uninfected CD4+ T cells from 3 healthy donors, anti-CD3/CD28 activated 48 hrs; 200 nM MLN; at 16 hours
Procedure: as §5, §6

[17] = test system: PUMA, NOXA, p21, p53 RNA; experiment: RT-qPCR for apoptotic targets and cell cycle indicators in primary CD4 T cells; format: cell-based; conditions: MLN
Procedure: as §5, §6

[18] = test system: Cullin RING Ligase (CRL^Vif)-mediated degradation of APOBEC3G (A3G); conditions: ex vivo, de novo HIV infections; previously reported; cited from earlier work

## NS(=O)(=O)OC[C@@H]1C[C@@H](n2ccc3c(N[C@H]4CCc5ccccc54)ncnc32)C[C@@H]1O [MLN, pevonedistat]
[1]
  Cullin 2 (CUL2) neddylation: inhibits
[2]
  infectivity of HIV in culture supernatant fluid: less infectious
[3]
  amount of A3G incorporated into virions: increases
[4]
  intracellular distribution of A3G (LMM form vs HMM complexes): shift to LMM form
[5]
  intracellular distribution of A3G (LMM form vs HMM complexes): shift to LMM form
[6]
  extracellular p24 antigen in culture supernatant fluid (ELISA): significantly reduced
[7]
  p24 antigen in pelleted reactivated virions (immunoblot): reduced
[8]
  p24 antigen in pelleted reactivated virions (immunoblot): reduced
[9]
  intracellular p24 production: significantly reduces
[10]
  intracellular p24 production: reduces
[11]
  HIV promoter-driven GFP expression: reduces
[12]
  HIV promoter-driven GFP expression: reduces
[13]
  HIV gag RNA expression (RT-qPCR): reduced
[14]
  percentage of cells dying from apoptosis (Annexin V): increases
[15]
  p53 RNA expression: does not increase
  relative expression of RNA encoding NOXA: increased
  relative expression of RNA encoding PUMA: increased
  relative expression of RNA encoding p21: increased
[16]
  apoptosis-mediated cell death (Annexin V): increase
[17]
  p53 RNA expression: did not significantly increase
[17]; normalized to 18S
  NOXA gene expression (RT-qPCR): increase
  PUMA gene expression (RT-qPCR): increase
  p21 expression (RT-qPCR): increase
[18]
  CRL^Vif-mediated degradation of APOBEC3G (A3G): block
